The results in this text go back to PubChem BioAssay (NCI).

Each structure is given as a SMILES string.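 Method: 48-hour compound exposure of cells in 96-well plates, five concentrations, linear interpolation of endpoints. GI50 = concentration required for 50% inhibition of growth. The concentration for full growth arrest is given as TGI.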 A value given as a limit tells only on which side of the number the result lay.

Assay in all cases: NCI tumour cell line growth inhibition, 48 h
Test [1] has as its system OVCAR-3 ovarian.
For test [2], the system named is MALME-3M melanoma.
Test [3] deals with MOLT-4 leukemia.
Test [4] concerns K-562 leukemia.
In test [5] the test system is HT29 colon.
The test system of test [6] is UACC-62 melanoma.
Test [7] has as its system SF-268 CNS.
For test [8], the system named is HCT-116 colon.
Test [9] relates to COLO 205 colon.
Test [10] deals with HCT-15 colon.

`CC(=O)O[C@@H]1C[C@]2(C(C)C)O[C@@]1(C)[C@@H]1CCC(C)=C1[C@@H]2OC(=O)/C=C/c1ccccc1`: the GI50 in test [1] is 22.5 µM; in test [2], 39.2 µM; in test [3] it was 26.9 µM; in test [4], 33.7 µM; in [5], 30.6 µM; in test [6] it was 26.5 µM. Also, the GI50 in [7] is 35.1 µM; in test [8], 16.4 µM; in test [9], 31.4 µM; in test [10] it was 32.7 µM. For the same compound, the TGI in [1], in [2], in test [3], in test [4], in test [5] and in test [6] was more than 100 µM in each case. Also, the TGI in [7], in test [8], in test [9] and in test [10] was more than 100 µM in each case.

With `O=C(CCC(=O)Nc1cccc(Cl)c1)CC(=O)c1ccc(Cl)cc1`, the TGI in [1], in test [2], in [3], in [4], in test [5] and in test [6] was more than 100 µM throughout. Moreover, the TGI in test [7], in test [8], in test [9] and in [10] was more than 100 µM in each case.

Regarding `NC(=O)C(=CNc1nc(-c2ccc(Cl)c(Cl)c2)cs1)C(N)=O`, the GI50 is 41.6 µM in test [1]; more than 100 µM in test [2]; 48.7 µM in test [3]; 75.8 µM in test [4]; more than 100 µM in test [5]; more than 100 µM in test [6]. Besides, the GI50 was 71.7 µM in [7], more than 100 µM in [8], more than 100 µM in test [9] and 84.7 µM in test [10]. Also, the TGI in [1], in test [2], in [3], in test [4], in test [5] and in [6] was more than 100 µM in each case. Moreover, the TGI in test [7], in [8], in test [9] and in test [10] was more than 100 µM each time.

For `COc1ccc(CNc2c3ccccc3nc3ccccc23)cc1OC`, the GI50 in [1] was 2.64 µM; in test [2] it was 1.95 µM; in test [3] it was 2.25 µM; in test [4] it was 2.34 µM; in test [5] it was 1.71 µM; in test [6], 2.42 µM. Further, the GI50 was 3.21 µM in [7], 0.944 µM in test [8], 1.32 µM in test [9] and 2.2 µM in test [10]. In addition, the TGI in test [1] was found to be 8.39 µM; in test [2] it was 4.98 µM; in test [3] it was 25.6 µM; in test [4], 25.2 µM; in test [5], 7.85 µM; in test [6] it was 7.46 µM. In addition, the TGI in test [7] is 13 µM; in test [8], 10.9 µM; in test [9] it was 3.82 µM; in test [10], 7.17 µM.

With `CCN1C(=O)N(CC)C2C1NC(=S)N2/N=C/C=C/c1cccs1` (stereo not given), the GI50 in test [1] was 0.241 µM; in test [2] it was 0.485 µM; in test [3], 0.62 µM; in test [4] it was 0.263 µM; in test [5], 0.352 µM; in test [6], 0.45 µM. The GI50 in test [7] is 1.47 µM; in test [8] it was 0.404 µM; in [9] it was 0.267 µM; in [10] it was 0.307 µM. Moreover, the TGI was 0.715 µM in test [1]; more than 100 µM in test [2]; more than 100 µM in [3]; more than 100 µM in test [4]; more than 100 µM in [5]; more than 100 µM in [6]. The TGI in test [7] was more than 100 µM; in test [8] it was more than 100 µM; in test [9], 1.17 µM; in test [10], more than 100 µM.

Consider `O=C(O)Cc1c(O)ccc2ccccc12`, for which the TGI in test [1], in test [2], in [3], in test [4], in [5] and in test [6] was more than 100 µM each time. Moreover, the TGI in test [7], in [8], in test [9] and in [10] was more than 100 µM in each case.

For the compound `COc1cc(NC(C)CCCN)c2nccc(C)c2c1OC` (stereo not given), the GI50 in test [1] is 3.17 µM; in test [2], 2.84 µM; in [3], 15.3 µM; in test [4], 19.2 µM; in test [5], 4.72 µM; in test [6], 16.6 µM. The GI50 in test [7] is 17.9 µM; in [8], 5 µM; in test [9] it was 3.37 µM; in test [10] it was 11.5 µM. The TGI in [1] is 10.1 µM; in [2] it was 9.84 µM; in test [3], 42.1 µM; in [4], 53.9 µM; in test [5], 20.9 µM; in test [6], 32.1 µM. In addition, the TGI in test [7] was determined as 48.3 µM; in [8] it was 18.7 µM; in [9] it was 11.8 µM; in [10], 24.5 µM.

With `CCCS(=O)(=O)Nc1ccc(Nc2c3ccccc3nc3ccccc23)c(OC)c1`, the TGI in [1] is 7.86 µM; in test [2], 6.68 µM; in test [3], 0.231 µM; in [4], more than 42.7 µM; in test [5], 7.16 µM; in test [6], 13.1 µM. Besides, the TGI in test [7] is 8.31 µM; in [8], 13.2 µM; in test [9] it was 20.8 µM; in test [10] it was 6.41 µM.

As for `N#CC1(C2SCCS2=O)C2=C(C(=O)c3ccccc3C2=O)N2CCCC21` (stereo not given), the TGI in test [1] stood at 2.04 µM; in test [2], 1.27 µM; in [3], 19.7 µM; in [4], 25.7 µM; in test [5], 14.2 µM; in [6] it was 6.54 µM. The TGI in test [7] is 11.2 µM; in test [8], 5.56 µM; in [9], 5.71 µM; in test [10], 6.63 µM.

For `N#CC(C#N)=c1[nH]c2cccc3c2-c2c(cccc2c3=C(C#N)C#N)[nH]1`, the TGI in test [1], in test [2], in test [3], in [4], in test [5] and in test [6] was more than 100 µM in each case. For the same compound, the TGI in test [7], in test [8], in test [9] and in test [10] was more than 100 µM throughout.

As for `CC(C)(C)N1CC2(CCCCC2)C1=O`, the TGI in test [1], in [2], in [3], in test [4], in test [5] and in test [6] was more than 100 µM each time. Also, the TGI in test [7], in test [8], in test [9] and in test [10] was more than 100 µM each time.

For the compound `CCCCCc1c(C)[nH]c(/C=C2\N=C(c3ccc[nH]3)C=C2CC)c1C`, the GI50 is 0.0199 µM in [1]; 0.0333 µM in [2]; less than 0.01 µM in [3]; less than 0.01 µM in test [4]; less than 0.01 µM in test [5]; 0.0158 µM in test [6]. The GI50 in test [7] was less than 0.01 µM; in test [8], less than 0.01 µM; in [9] it was 0.0188 µM; in [10], less than 0.01 µM. The TGI in test [1] stood at 0.103 µM; in test [2], 0.187 µM; in [3], 0.108 µM; in test [4], 0.176 µM; in test [5], 0.131 µM; in test [6] it was 0.043 µM. In addition, the TGI stood at 0.802 µM in test [7], 0.0255 µM in [8], 0.134 µM in test [9] and 0.125 µM in [10].

For the compound `CN(C)c1ccc2nc3ccc(=O)cc-3sc2c1`, the GI50 in [1] is 0.598 µM; in [2], 0.333 µM; in test [3], 1.4 µM; in test [4], 0.919 µM; in test [5], 4.26 µM; in test [6], 1.32 µM. In addition, the GI50 in test [7] is 5.16 µM; in [8], 1.16 µM; in [9], 0.38 µM; in test [10], 0.322 µM. In addition, the TGI is more than 28.1 µM in [1]; 4.18 µM in test [2]; 26 µM in [3]; more than 100 µM in test [4]; 37.1 µM in test [5]; 8.69 µM in [6]. Moreover, the TGI is more than 100 µM in test [7], 8.47 µM in test [8], 3.81 µM in [9] and more than 86 µM in test [10].

As to `CN1CCc2c(Sc3ccc(C(=O)NO)cc3)c3ccccc3n2C1`, the GI50 in test [1] is 2.16 µM; in [2], 1.12 µM; in test [3] it was 2.53 µM; in test [4], 2.91 µM; in test [5] it was 2.83 µM; in [6], 1.62 µM. In addition, the GI50 was 1.85 µM in test [7], 1.7 µM in test [8], 1.92 µM in test [9] and 3.62 µM in test [10]. Moreover, the TGI in test [1] is 6.74 µM; in test [2], 4.33 µM; in test [3], 7.01 µM; in [4] it was more than 33 µM; in [5] it was 12.2 µM; in [6], 3.65 µM. Besides, the TGI in test [7] turned out to be 4.31 µM; in [8] it was 3.97 µM; in test [9], 4.52 µM; in test [10] it was 13.4 µM.
